Values joined by “and” are separate entries in the source; they are usually repeats but may differ in a detail not shown here. Identical values can stand only once.
Assay: Drug release/delivery (pulse) time of capsule in stirred purified water at 37° C., spectrophotometric
Format: physicochemical
Text: A coated gelatin capsule of the type shown in FIG. 1 was filled with hydrogel powder prepared as in Example 1 of particle size 425 to 710 microns, and metoclopramide drug included as a separate layer. The hydrogel powder was compacted leaving a 4.5 mm space between the top of the hydrogel layer 10 and the mouth of the body 6. The metoclopramide was placed on top and the body was sealed with a hydrogel plug. […] The nominal delivery time was three hours.
In order to assess the delivery time to release of the drug, each capsule was placed in a liter of purified water at 37° C. stirred with a paddle at 50 rpm. The presence of drug in the water was monitored spectrophotometrically.
The procedure was repeated with a capsule having a hydrogel plug designed to provide a nominal delivery time of five hours. […] The "space" represents the space between the top of the hydrogel layer and the mouth of the body after inclusion of the drug. The space allows insertion of the plug to its correct depth without interference from the hydrogel powder fill. In this case the hydrogel plug was recessed 0.5 mm below the upper end of the neck of the capsule body.
Drug release was monitored spectrophotometrically at 226 nm.

Compound	Delivery Time (individual capsules 1 to 6, Example 2, hydrogel powder excipient, nominal delivery time three hours, 37° C., paddle 50 rpm)	mean delivery time (six capsules, Example 2, standard deviation 0.10, nominal three hours, hydrogel powder excipient) [h]	mean pulse time (Example 4, standard deviation of 0.1, nominal three hour pulse time, shorter plug, hydrogel excipient) [h]
CCN(CC)CCNC(=O)c1cc(Cl)c(N)cc1OC [metoclopramide]	3.25 h and 3.00 h	3.21	
salbutamol sulphate			3.29
